In patent US20210139477A1, “ALK5 INHIBITORS, CONJUGATES, AND USES THEREOF” (Silverback Therapeutics, Inc., priority 2019, published 2021):

Tests used:
[1] = system: TGFb/SMAD Signaling Pathway SBE reporter cell line; assay: TGFb reporter assay (TGFb/SMAD Signaling Pathway SBE luciferase reporter cell line); format: cell-based; conditions: 5-6 h preincubation, then TGFb, 18 h, luciferase luminescence
Method: TGFβ/SMAD Signaling Pathway SBE reporter cell line was obtained from BPS Bioscience. Cells were passed, expanded, and stored in liquid nitrogen as per the supplier's instructions with the exception that growth media is changed to DMEM-C with Geneticin (DMEM supplemented with 10% fetal bovine serum, 1×NEAA, 1 mM Pyruvate, 2 mM glutamine, 50 μg/mL penicillin, 50 U/mL streptomycin and 400 μg/mL of Geneticin). The assay media was MEM supplemented with 0.5% fetal bovine serum, 1×NEAA, 1 mM Pyruvate, 50 μg/mL penicillin and 50 U/mL streptomycin.
TGFb/SMAD Signaling Pathway SBE reporter cell line was obtained from BPS Bioscience. Cells were passed/expanded/stored in liquid nitrogen per supplier's instruction with the exception that growth media was changed to DMEM-C with Geneticin (DMEM supplemented with 10% fetal bovine serum, IX NEAA, 1 mM Pyruvate, 2 mM glutamine, 50 μg/mL penicillin, 50 U/mL streptomycin and 400 ug/mL of Geneticin). The assay media was MEM supplemented with 0.5% fetal bovine serum, IX NEAA, 1 mM Pyruvate, 50 μg/mL penicillin and 50 U/mL streptomycin.
Reporter cells were harvested from the tissue culture flasks by incubation in small quantity of Versene at room temperature for three to five minutes after the media in the flask was removed and cells rinsed with PBS. Cells were counted and diluted in the assay media at 0.8×10^6 cells/mL then 50 uL/well were added to 96-well assay plate. Test samples (at desired concentrations diluted in assay media) were added to assay plate containing the 50 uL/well of cells (or media only), 50 uL per well, and incubated for 5-6 hours at 37° C. in a 5% CO2 humidified incubator. After that time, 15 uL of TGFb diluted to 12.5 ng/mL in the assay media was added to the plate. Controls included TGFb titration (from 25 to 0 ng/mL) without inhibitors, and media only (without cells, inhibitor or TGFb). Plates were incubated at 37° C. in a […] humidified incubator for 18 h. Luciferase substrate solution was subsequently added at 75 uL per well, incubated in dark with shaking at room temperature for 10 min, and luminescence was measured using a luminometer.

[2] = target: T1, ALK5 (Homo sapiens, UniProt P36897); assay: ALK5 enzyme inhibition assay (Reaction Biology Corp, 33P-ATP filter-binding, casein substrate); format: biochemical; conditions: 10 uM ATP, 2 hours at room temperature
T1 construct: purchased Reaction Biology Corp (Malvern, Pa.)
T1 sequence (P36897 34-503): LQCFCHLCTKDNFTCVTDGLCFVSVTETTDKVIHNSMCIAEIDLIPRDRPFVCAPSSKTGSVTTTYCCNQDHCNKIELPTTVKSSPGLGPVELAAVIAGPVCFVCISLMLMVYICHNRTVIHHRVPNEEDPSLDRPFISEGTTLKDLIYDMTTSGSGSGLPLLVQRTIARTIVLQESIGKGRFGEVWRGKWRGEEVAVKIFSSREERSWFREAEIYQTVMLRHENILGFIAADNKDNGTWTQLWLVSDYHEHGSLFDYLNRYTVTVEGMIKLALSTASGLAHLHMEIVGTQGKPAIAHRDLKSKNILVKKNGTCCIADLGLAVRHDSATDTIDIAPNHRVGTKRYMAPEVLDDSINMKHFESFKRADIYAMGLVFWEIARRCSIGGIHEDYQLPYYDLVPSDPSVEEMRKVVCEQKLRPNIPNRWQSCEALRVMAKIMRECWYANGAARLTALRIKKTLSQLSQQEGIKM
Method: ALK5 enzyme inhibition assays were performed by Reaction Biology Corp (Malvern, Pa.). 1 mg/mL of peptide substrate (casein) and 10 uM ATP were prepared in a mixture of fresh reaction buffer. The kinase was delivered into the substrate solution which was gently mixed. Compounds in 100% DMSO were added to the kinase reaction mixture by Acoustic technology (Echo550; nanoliter range) and the mixture was incubated for 20 min at room temperature. ^33P-ATP (Specific activity 10 uCi/uL) was added into the reaction mixture to initiate the reaction and the reaction mixture was incubated for 2 hours at room temperature. Radioactivity was detected by filter-binding method and kinase activity data were expressed as the percent remaining kinase activity in test samples compared to vehicle (dimethyl sulfoxide) reactions. IC50 values and curve fits were obtained using Prism (GraphPad Software).

| EC50 [1] [nM] | IC50 [2] [nM] | Structure (SMILES) |
| --- | --- | --- |
| 100 to 1000 | 0.1 to 50 | COC(=O)[C@@H](NCc1nc(-c2cccc(C)n2)c(-c2ccc3ncnn3c2)[nH]1)c1ccccc1 [Compound 16] |
| 100 to 1000 | 1000 to 10000 | Cc1cccc(-c2nc(CN[C@@H](C)c3ccccc3)[nH]c2-c2ccc3ncnn3c2)n1 [Compound 12] |
| 10 to 100 | – | Cc1cccc(-c2nc(CN[C@@H](CO)c3ccccc3)[nH]c2-c2ccc3ncnn3c2)n1 [Compound 14] |
| 0.1 to 10 | – | COc1ccccc1CCNCc1nc(-c2cccc(C)n2)c(-c2ccc3ncccc3n2)[nH]1 [Compound 84] |
| 0.1 to 10 | – | Cc1cccc(-c2nc(CNCc3ccccc3)[nH]c2-c2ccc3ncccc3c2)n1 [Compound 90] |
| 10 to 100 | – | Cc1cccc(-c2nc(CNCc3cc(Cl)ccc3Cl)[nH]c2-c2ccc3ncnn3c2)n1 [Compound 5] |
| 10 to 100 | – | Cc1cccc(-c2nc(CNCc3ccc(Cl)cc3)[nH]c2-c2ccc3ncnn3c2)n1 [Compound 3] |
| 0.1 to 10 | – | Cc1cccc(-c2nc(CNCCOc3ccccc3)[nH]c2-c2ccc3ncnn3c2)n1 [Compound 65] |
| 10 to 100 | – | Cc1cccc(-c2nc(CNCc3cccc(Cl)c3)[nH]c2-c2ccc3ncnn3c2)n1 [Compound 2] |
| 0.1 to 10 | – | Cc1cccc(-c2nc(CNCCc3ccccc3F)[nH]c2-c2ccc3ncnn3c2)n1 [Compound 59] |
| 100 to 1000 | – | Cc1cccc(-c2nc(CNCc3ccccc3C#N)[nH]c2-c2ccc3ncnn3c2)n1 [Compound 20] |
| 100 to 1000 | – | Cc1cccc(-c2nc(CNCc3ccccc3-c3ccccc3)[nH]c2-c2ccnc3ccccc23)n1 [Compound 69] |
| 0.1 to 10 | – | Cc1cccc(-c2nc(CNCCc3ccccc3)[nH]c2-c2ccc3ncnn3c2)n1 [Compound 52] |
| 10 to 100 | – | COc1ccccc1CNCc1nc(-c2cccc(C)n2)c(-c2ccc3ncnn3c2)[nH]1 [Compound 17] |
| 10 to 100 | – | Cc1cccc(-c2nc(CNCc3ccccc3-c3ccccc3)[nH]c2-c2ccc3ncccc3n2)n1 [Compound 68] |
| 10 to 100 | – | Cc1cccc(-c2nc(CNCc3cccc(Oc4cccnc4)c3)[nH]c2-c2ccc3ncnn3c2)n1 [Compound 57] |
| 0.1 to 10 | – | COc1cccc(CNCc2nc(-c3cccc(C)n3)c(-c3ccc4ncnn4c3)[nH]2)c1 [Compound 7] |
| 100 to 1000 | – | Cc1cccc(-c2nc(CNCc3ccc(Cl)c(Cl)c3)[nH]c2-c2ccc3ncnn3c2)n1 [Compound 4] |
| 100 to 1000 | – | Cc1cccc(-c2nc(CNCc3ccccc3-c3ccccc3CNC(=O)OC(C)(C)C)[nH]c2-c2ccc3ncnn3c2)n1 [Compound 29] |
| 0.1 to 10 | – | Cc1cccc(-c2nc(CNCCc3c(F)cccc3F)[nH]c2-c2ccc3nccnc3c2)n1 [Compound 82] |
